Data as given in patent US20080155704A1, “Methods and Compositions for Determining in vivo Activity of BiP” (King's College London, priority 2006, published 2008).

Assays:
Assay type in all cases: cell-based, human
[1] = system: T cells; assay: Regulatory markers on T cells co-cultured with BiP-treated dendritic cells
Method: FIG. 11: Co-culture of T cells with BiP-treated dendritic cells (DC) upregulates regulatory markers. […] Mean ±standard deviation of three experiments is shown.
Intracellular staining was carried out with fixed cells incubated with 1% paraformaldehyde in IF buffer for 5 minutes at room temperature. The cells were washed twice with IF buffer containing 0.3% saponin for permeabilization. 0.3% saponin was then present in all IF buffer used thereafter. CTLA-4/CD152 (BD), FoxP3 (eBioscience) and indolamine 2,3-dioxygenase (Santa Cruz) and cytokines required intracellular staining. Antibodies were added at the pre-determined optimal concentration for 20 mins and then the cells were washed twice with IF buffer and analysed. Isotype controls, IgG1 and IgG2a (Becton Dickinson, Oxford, UK) were used in parallel. Cells were analysed on a FACScan cytometer using Cellquest software (Becton Dickinson, Oxford, UK).
T cells were purified from peripheral blood mononuclear cells and set up in culture with either allogeneic or autologous dendritic cells, which had been washed and irradiated, at a ratio of 10 T cells:1 DC. The cells were co-cultured in a 24 well plate in 1 ml/well, in RPMI 1640 supplemented with 10% foetal calf serum, for 4 days then the T cells were removed and washed before being investigated for the presence of T regulatory cells (see below)
Immunofluorescent staining was performed, as described previously (39), on DC harvested at day 7, T cells after 4 days co-culture with DC. Saturating concentrations of fluorescein isothiocyanate (FITC)-, phycoerythrin (PE) or peridium chlorophyll (Per-CP)-conjugated mAb were added recognizing CD14, CD86, CD80, HLA-DR, CD11c, CD1a, CD83, CD85j, IL-10 receptor; purity of the negatively selected MO and T cells was checked using CD3, CD4, CD14, CD20 and CD57 (all from Becton Dickinson/PharMingen (BD), Oxford, UK). Intracellular staining was carried out following fixation of cells with 1% paraformaldehyde for 5 minutes. Cells were then washed with immunofluorescence buffer (PBS/0.1% BSA/0.05% azide) containing 0.3% saponin. 0.3% saponin was then present in all solutions thereafter. CD152/CTLA-4 (BD, Oxford UK) and IDO (Santa Cruz, Autogen Bioclear, UK) were intracellular stains. Isotype controls, IgG1 and IgG2a (BD, Oxford, UK) were used in parallel. Cells were analysed on a FACScan/FACScalibur cytometers using Cellquest software (BD, Oxford, UK).

[2] = system: IL-10; assay: IL-10 production by dendritic cell cultures (ELISA); conditions: 3d GM-CSF and IL-4 with BiP 20 μg/ml; inhibitors 10 μM, anti-IL-10 added at day 0 (FIG. 13D)
Method: (§1) Supernatant samples were collected on day 1, 3 and 7 for iDC and from the final cultures of the T cells taken from the iDC/mDC-T cell allogeneic test system and set up with autologous cells to determine if there was any regulatory activity. The samples were aliquoted and frozen at −70° C. until required. Production IL-10 was quantified by ELISA using paired antibodies and recombinant standards (PharMingen, Oxford, UK) according to the recommendations of the manufacturer. In addition some were analysed by cytometric bead assay (BD, Oxford, UK) according to the manufacturers instructions.
(§2) To neutralize IL-10 within the cultures anti-IL-10 antibody (ATCC, Rockville, USA) was added at day 0 (5 μg/ml) to GM-CSF and IL-4 treated cultures in the presence and absence of BiP (20 μg/ml). Two specific cell-permeable inhibitors of the MAPK intracellular signalling pathways were used. SB203580 (SB)(10 μM)((Calbiochem, Darmstadt, Germany) inhibits p38 MAPK, and PD98059 (PD) (10 μM)(Calbiochem), an inhibitor of MAPK extracellular signal regulated kinase (ERK), were tested. MO were pre-treated with the inhibitors for 2 h before adding GM-CSF and IL-4 in the presence or absence of BiP.
as §1, with “of the pro-inflammatory cytokine, TNFα, and the anti-inflammatory cytokine, IL-10,” for “IL-10”

[3] = system: allogeneic T cells; assay: Allogeneic proliferative response to early BiP treated DC (tritiated thymidine uptake); conditions: early DC 72 h; inhibitors 10 μM 2 h pre-treatment of monocytes; anti-IL-10 neutralizing antibody (FIG. 13A, B)
Method: Allogeneic responses by T cells in culture with irradiated (3,000 rads) early DC (eDC), after only 3d in culture with GM-CSF and IL-4 in the presence or absence of BiP (20 μg/ml) at a ratio of 10:1 PBMC:DC (105:10^4 cells/well). The results are shown as an allogeneic proliferative response (A) following addition of neutralizing anti-IL-10 ( 1/100 dilution) antibody and (B) the pre-treatment (2 h) of monocytes (MO) with p38 inhibitor, SB203580 (SB)(10 μM) or the ERK1/2 inhibitor, PD 98059 (PD)(10 μM), prior to the addition of GM-CSF and IL-4 to the cultures. The proliferation of PBMC to early DC following (C) the addition of BiP 24 h post addition of GM-CSF and IL-4. Proliferation was measured by uptake of tritiated thymidine and recorded as counts per minute (cpm). ELISA was used to detect IL-10 (D) in the culture supernatants and (E) by 7d cultured iDC/iDC(BiP) and fully matured mDC/mDC(BiP) differentiated as described in following 7d culture in GM-CSF and IL-4 with LPS (500 ng/ml) added for the final 2d.
as §2

| SMILES | proliferation of T cells in an allogeneic response after co-culture with 1MT ([1]; 1MT 200 μM added to co-cultures of T cells with autologous mDC or mDC(BiP)) | T cell expression of intracellular CTLA-4 in the presence of 1MT ([1]; 1MT 200 μM in mDC/mDC(BiP)-T cell co-cultures, n=3) | IL-10 production by early DC(BiP) cultures [2] | reversal of BiP's inhibitory activity on the allogeneic response [3] |
| --- | --- | --- | --- | --- |
| Cn1cc(C[C@H](N)C(=O)O)c2ccccc21 [1MT, 1 methyl tryptophan, reference compound] | increased proliferation by the T cells | significant reduction in T cell expression of CTLA-4 |  |  |
| COc1cccc(-c2cc(=O)c3ccccc3o2)c1N [PD98059, reference compound] |  |  | did not inhibit IL-10 production | could not |
| C[S+]([O-])c1ccc(-c2nc(-c3ccncc3)c(-c3ccc(F)cc3)[nH]2)cc1 (stereo not drawn) [SB203580, reference compound] |  |  | not detected | totally reversed BiP's inhibitory activity |
